Values quoted from earlier work, collected in patent US20130323309A1, “Sustained Release Composition of Memantine” (LUPIN LIMITED, priority 2011, published 2013).

Conditions: aqueous media and polar solvents; memantine or a pharmaceutically acceptable salt

## CC12CC3CC(C)(C1)CC(N)(C3)C2 [Memantine, 1-amino-3,5-dimethyladamantane]
  Solubility: highly soluble
